Reference: article PMC10303200 (ACS Central Science, 2023)

Tests used:
Type in all cases: binding
Sig7-Fc [1] = target: T1, Sig7-Fc (Homo sapiens, UniProt Q9Y286); assay: COIN-CaR-nMS with purified oligosaccharides listed beside the library glycans, 200 mM ammonium acetate, pH 6.9.; parameters: gene SIGLEC7; residues 1-345, human IgG1 Fc fusion and C-terminal His6, from CHO cells, MW 150 kDa
Target sequence in this assay (Q9Y286 1-345): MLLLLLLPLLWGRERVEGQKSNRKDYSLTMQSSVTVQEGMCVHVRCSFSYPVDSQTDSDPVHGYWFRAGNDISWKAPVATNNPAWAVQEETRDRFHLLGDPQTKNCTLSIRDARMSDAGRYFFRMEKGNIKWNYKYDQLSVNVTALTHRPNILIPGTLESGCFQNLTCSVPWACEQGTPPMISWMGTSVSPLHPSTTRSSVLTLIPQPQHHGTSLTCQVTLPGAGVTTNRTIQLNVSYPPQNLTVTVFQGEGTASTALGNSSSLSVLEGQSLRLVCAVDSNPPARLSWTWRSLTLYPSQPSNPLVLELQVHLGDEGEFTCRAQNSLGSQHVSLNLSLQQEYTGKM

Sig7-Fc [2] = target: T1, Sig7-Fc; assay: COIN-CaR-nMS; parameters: Siglec 7-Fc (Sig7-Fc, residue 1–345, MW 150 kDa); His6 (C); made in house; host or cells: wild-type CHO cells
Target sequence in this assay (Q9Y286 19-345): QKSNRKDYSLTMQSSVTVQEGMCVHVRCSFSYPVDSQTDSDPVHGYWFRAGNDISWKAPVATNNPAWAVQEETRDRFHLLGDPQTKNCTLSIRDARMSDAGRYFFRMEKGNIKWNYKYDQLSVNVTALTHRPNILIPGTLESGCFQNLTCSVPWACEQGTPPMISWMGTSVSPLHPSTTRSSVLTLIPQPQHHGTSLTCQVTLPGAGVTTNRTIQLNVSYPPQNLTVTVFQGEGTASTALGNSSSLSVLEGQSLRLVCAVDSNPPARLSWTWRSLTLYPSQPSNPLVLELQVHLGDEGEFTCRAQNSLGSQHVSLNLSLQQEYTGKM

GAL-7 [3] = target: T2, GAL-7 (Homo sapiens, UniProt P47929); assay: Direct native ESI-MS of the GAL-7 homodimer with a mixture of ten glycans (G2, G5-G13), 200 mM ammonium acetate, pH 6.9.; details: SD, n = 8; read-out: Kd (nMS), Table S4
T2 construct: gene LGALS7; homodimer (monomer MW 14.94 kDa)

GAL-3C [4] = target: T3, GAL-3C (Homo sapiens, UniProt P17931); assay: COIN-nMS with a mixture of ten glycans (G2, G5-G13), 200 mM ammonium acetate, pH 6.9.; parameters: gene LGALS3; C-terminal carbohydrate recognition domain fragment, residues 107-250; details: SD, n = 8; read-out: Kd (COIN-nMS), Table S3
GAL-7 [5] = target: T2, GAL-7; assay: COIN-nMS of the GAL-7 homodimer with a mixture of ten glycans (G2, G5-G13), 200 mM ammonium acetate, pH 6.9.; details: SD, n = 8; read-out: Kd (COIN-nMS), Table S4
GAL-3C [6] = target: T3, GAL-3C; assay: Direct native ESI-MS with a mixture of ten glycans (G2, G5-G13), 200 mM ammonium acetate, pH 6.9.; parameters: gene LGALS3; C-terminal carbohydrate recognition domain fragment, residues 107-250; details: SD, n = 8; read-out: Kd (nMS), Table S3
[7] = read-out: Kd, purified oligosaccharides in Tables S12, S13, S18, S19; SD
[8] = N-glycan natural libraries and purified oligosaccharides, pH 6.9, read-out: Kd
[9] = SD; read-out: Kd, purified oligosaccharides in Tables S12, S13, S18, S19

T2 sequence (P47929 whole entry): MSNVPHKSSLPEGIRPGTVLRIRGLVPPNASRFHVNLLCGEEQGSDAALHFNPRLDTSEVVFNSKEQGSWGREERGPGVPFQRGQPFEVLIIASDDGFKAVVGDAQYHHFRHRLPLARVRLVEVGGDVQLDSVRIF
T3 sequence (P17931 107-250): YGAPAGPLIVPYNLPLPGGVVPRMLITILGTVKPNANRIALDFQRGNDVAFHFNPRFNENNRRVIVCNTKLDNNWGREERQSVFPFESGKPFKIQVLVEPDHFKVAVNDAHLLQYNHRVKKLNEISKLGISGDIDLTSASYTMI

CC(=O)NC1C(OC2C(CO)OC(OC3C(CO)OC(O)C(O)C3O)C(O)C2OC2(C(=O)O)CC(O)C(NC(C)=O)C(C(O)C(O)CO)O2)OC(CO)C(O)C1O [GM2, GM2 oligosaccharide, α-D-GalNAc(1→4)-[α-D-Neu5Ac-(2→3)]-β-D-Gal-(1→4)-D-Glc]
Kd (Sig7-Fc [1]; [7]): 460 µM

α-D-GalNAc(1→4)-[α-D-Neu5Ac-(2→3)]-β-D-Gal-(1→4)-D-Glc [Glycan G28]
Kd (Sig7-Fc [2]; [8]): 460 ± 117 µM

CC(=O)N[C@H]1[C@H](O[C@@H]2[C@H](O[C@]3(C(=O)O)C[C@H](O)[C@@H](NC(C)=O)[C@H]([C@H](O)[C@@H](CO)O[C@]4(C(=O)O)C[C@H](O)[C@@H](NC(C)=O)[C@H]([C@H](O)[C@H](O)CO)O4)O3)[C@@H](O)[C@H](O[C@H]3[C@H](O)[C@@H](O)C(O)O[C@@H]3CO)O[C@@H]2CO)O[C@H](CO)[C@H](O)[C@@H]1O (stereo partly drawn) [Glycan G29, α-D-GalNAc(1→4)-[α-D-Neu5Ac-(2→8)-α-D-Neu5Ac-(2→3)]-β-D-Gal-(1→4)-D-Glc]
Kd (Sig7-Fc [2]; G21 1.0 μM and G29 30 μM, read-out: Kd (COIN-CaR-nMS), two ligands): 184 ± 5 µM | Kd (Sig7-Fc [2]; G21 5 μM and G29 30 μM, read-out: Kd (COIN-CaR-nMS), two ligands): 240 ± 2 µM | Kd (Sig7-Fc [2]; G21 10 μM and G29 30 μM, read-out: Kd (COIN-CaR-nMS), two ligands): 240 ± 10 µM

CC(=O)N[C@H]1[C@H](O[C@H]2[C@@H](O)[C@@H](CO)O[C@@H](O[C@H]3[C@H](O[C@@H]4O[C@@H](C)[C@@H](O)[C@@H](O)[C@@H]4O)[C@@H](O)C(O)O[C@@H]3CO)[C@@H]2O)O[C@H](CO)[C@@H](O)[C@@H]1O[C@@H]1O[C@H](CO)[C@H](O)[C@H](O)[C@H]1O (stereo partly drawn) [G6, β-D-Gal(1→3)-β-D-GlcNAc(1→3)-β-D-Gal(1→4)-[α-L-Fuc(1→3)]-β-D-Glc]
Kd (GAL-7 [3]): 232 µM | Kd (GAL-3C [4]): 101 µM | Kd (GAL-7 [5]): 278 µM | Kd (GAL-3C [6]): 26.8 µM

CC(=O)N[C@H]1[C@@H](O[C@H]2[C@@H](O)[C@@H](CO)O[C@@H](O[C@H]3[C@H](O)[C@@H](O)C(O)O[C@@H]3CO)[C@@H]2O[C@@H]2O[C@@H](C)[C@@H](O)[C@@H](O)[C@@H]2O)O[C@H](CO)[C@H](O)[C@@H]1O (stereo partly drawn) [G12, α-D-GalNAc-(1→3)-[α-L-Fuc-(1→2)]-β-D-Gal-(1→4)-β-D-Glc]
Kd (GAL-7 [3]): 184 µM | Kd (GAL-3C [4]): 10.4 µM | Kd (GAL-7 [5]): 333 µM | Kd (GAL-3C [6]): 11.3 µM

CC(=O)N[C@H]1[C@H](O[C@H]2[C@@H](O)[C@@H](CO)O[C@@H](O[C@H]3[C@H](O)[C@@H](NC(C)=O)[C@H](O[C@H]4[C@@H](O)[C@@H](CO)O[C@@H](O[C@H]5[C@H](O)[C@@H](NC(C)=O)[C@H](O[C@H]6[C@@H](O)[C@@H](CO)O[C@@H](O[C@H]7[C@H](O)[C@@H](O)C(O)O[C@@H]7CO)[C@@H]6O)O[C@@H]5CO)[C@@H]4O)O[C@@H]3CO)[C@@H]2O)O[C@H](CO)[C@@H](O[C@@H]2O[C@H](CO)[C@H](O)[C@H](O)[C@H]2O)[C@@H]1O (stereo partly drawn) [G8, β-D-Gal-(1→4)-β-D-GlcNAc-(1→3)-β-D-Gal-(1→4)-β-D-GlcNAc-(1→3)-β-D-Gal-(1→4)-β-D-GlcNAc-(1→3)-β-D-Gal-(1→4)-β-D-Glc]
Kd (GAL-7 [3]): 178 µM | Kd (GAL-3C [4]): 5.8 µM | Kd (GAL-7 [5]): 232 µM | Kd (GAL-3C [6]): 5.5 µM

β-D-Gal(1→3)-α-D-GalNAc(1→4)-[α-D-Neu5Ac-(2→8)-α-D-Neu5Ac-(2→8)-α-D-Neu5Ac-(2→3)]-β-D-Gal-(1→4)-D-Glc [Glycan G33]
Kd (Sig7-Fc [2]; N-glycan natural libraries and purified oligosaccharides, pH 6.9, listed as GT1c): weak or no binding

CC(=O)NC1C(O)CC(OC(CO)C(O)C2OC(OC(CO)C(O)C3OC(OC4C(O)C(CO)OC(OC5C(CO)OC(O)C(O)C5O)C4O)(C(=O)O)CC(O)C3NC(C)=O)(C(=O)O)CC(O)C2NC(C)=O)(C(=O)O)OC1C(O)C(O)CO [GT3, GT3 oligosaccharide, α-D-Neu5Ac-(2→8)-α-D-Neu5Ac-(2→8)-α-D-Neu5Ac-(2→3)-β-D-Gal-(1→4)-D-Glc]
Kd (Sig7-Fc [1]; SD): 184 µM

CC(=O)NC1C(OC2C(CO)OC(OC3C(CO)OC(O)C(O)C3O)C(O)C2OC2(C(=O)O)CC(O)C(NC(C)=O)C(C(O)C(CO)OC3(C(=O)O)CC(O)C(NC(C)=O)C(C(O)C(CO)OC4(C(=O)O)CC(O)C(NC(C)=O)C(C(O)C(O)CO)O4)O3)O2)OC(CO)C(O)C1O [GT2, GT2 oligosaccharide, α-D-GalNAc(1→4)-[α-D-Neu5Ac-(2→8)-α-D-Neu5Ac-(2→8)-α-D-Neu5Ac-(2→3)]-β-D-Gal-(1→4)-D-Glc]
Kd (Sig7-Fc [1]; [7]): 235 µM

CC(=O)N[C@H]1[C@H](O[C@H]2[C@@H](O)[C@@H](CO)O[C@@H](O[C@H]3[C@H](O)[C@@H](O)C(O)O[C@@H]3CO)[C@@H]2O)O[C@H](CO)[C@@H](O[C@@H]2O[C@H](CO)[C@H](O)[C@H](O)[C@H]2O)[C@@H]1O (stereo partly drawn) [G9, β-D-Gal-(1→4)-β-D-GlcNAc-(1→3)-β-D-Gal-(1→4)-β-D-Glc]
Kd (GAL-7 [3]): 348 µM | Kd (GAL-3C [4]): 12.9 µM | Kd (GAL-7 [5]): 439 µM | Kd (GAL-3C [6]): 23.2 µM

CC(=O)N[C@H]1[C@H](O[C@@H]2[C@H](O[C@]3(C(=O)O)C[C@H](O)[C@@H](NC(C)=O)[C@H]([C@H](O)[C@H](O)CO)O3)[C@@H](O)[C@H](O[C@H]3[C@H](O)[C@@H](O)C(O)O[C@@H]3CO)O[C@@H]2CO)O[C@H](CO)[C@H](O)[C@@H]1O[C@@H]1O[C@H](CO)[C@H](O)[C@H](O)[C@H]1O (stereo partly drawn) [GM1, GM1 oligosaccharide, β-D-Gal(1→3)-α-D-GalNAc(1→4)-[α-D-Neu5Ac-(2→3)]-β-D-Gal-(1→4)-D-Glc]
Kd (Sig7-Fc [1]; [9]): 437 µM

CC(=O)N[C@H]1[C@H](O[C@H]2[C@@H](O)[C@@H](CO)O[C@@H](O[C@H]3[C@H](O)[C@@H](NC(C)=O)[C@H](O[C@H]4[C@@H](O)[C@@H](CO)O[C@@H](O[C@H]5[C@H](O)[C@@H](O)C(O)O[C@@H]5CO)[C@@H]4O)O[C@@H]3CO)[C@@H]2O)O[C@H](CO)[C@@H](O[C@@H]2O[C@H](CO)[C@H](O)[C@H](O)[C@H]2O)[C@@H]1O (stereo partly drawn) [G7, β-D-Gal-(1→4)-β-D-GlcNAc(1→3)-β-D-Gal(1→4)-β-D-GlcNAc(1→3)-β-D-Gal(1→4)-β-D-Glc]
Kd (GAL-7 [3]): 348 µM | Kd (GAL-3C [4]): 2.9 µM | Kd (GAL-7 [5]): 362 µM | Kd (GAL-3C [6]): 5 µM

CC(=O)N[C@H]1[C@H]([C@H](O)[C@H](O)CO)O[C@@](O[C@H](CO)[C@@H](O)[C@@H]2O[C@@](O[C@H]3[C@@H](O)[C@@H](CO)O[C@@H](O[C@H]4[C@H](O)[C@@H](O)C(O)O[C@@H]4CO)[C@@H]3O)(C(=O)O)C[C@H](O)[C@H]2NC(C)=O)(C(=O)O)C[C@@H]1O (stereo partly drawn) [GD3, GD3 oligosaccharide, α-D-Neu5Ac-(2→8)-α-D-Neu5Ac-(2→3)-β-D-Gal-(1→4)-D-Glc]
Kd (Sig7-Fc [1]; [9]): 97 µM

CC(=O)N[C@H]1[C@H](O[C@@H]2[C@H](O[C@]3(C(=O)O)C[C@H](O)[C@@H](NC(C)=O)[C@H]([C@H](O)[C@@H](CO)O[C@]4(C(=O)O)C[C@H](O)[C@@H](NC(C)=O)[C@H]([C@H](O)[C@H](O)CO)O4)O3)[C@@H](O)[C@H](O[C@H]3[C@H](O)[C@@H](O)C(O)O[C@@H]3CO)O[C@@H]2CO)O[C@H](CO)[C@H](O)[C@@H]1O (stereo partly drawn) [G29, GD2 oligosaccharide, α-D-GalNAc(1→4)-[α-D-Neu5Ac-(2→8)-α-D-Neu5Ac-(2→3)]-β-D-Gal-(1→4)-D-Glc]
Kd (Sig7-Fc [1]; [9]): 205 µM

α-D-Neu5Ac-(2→8)-α-D-Neu5Ac-(2→8)-α-D-Neu5Ac-(2→3)-β-D-Gal-(1→4)-D-Glc [Glycan G27]
Kd (Sig7-Fc [2]; [8]): 184 ± 41 µM

CC(=O)N[C@H]1[C@@H](O[C@H]2[C@@H](O)[C@@H](CO)O[C@@H](O[C@H]3[C@H](O)[C@@H](CO)O[C@@H](O[C@H]4[C@@H](O)[C@@H](CO)O[C@@H](O[C@H]5[C@H](O)[C@@H](O)C(O)O[C@@H]5CO)[C@@H]4O)[C@@H]3NC(C)=O)[C@@H]2O[C@@H]2O[C@@H](C)[C@@H](O)[C@@H](O)[C@@H]2O)O[C@H](CO)[C@H](O)[C@@H]1O (stereo partly drawn) [G13, α-D-GalNAc-(1→3)-[α-L-Fuc-(1→2)]-β-D-Gal-(1→3)-β-D-GlcNAc-(1→3)-β-D-Gal-(1→4)-β-D-Glc]
Kd (GAL-7 [3]): 261 µM | Kd (GAL-3C [4]): 2.4 µM | Kd (GAL-7 [5]): 261 µM | Kd (GAL-3C [6]): 4.6 µM

CC(=O)N[C@H]1[C@H](O[C@@H]2[C@H](O[C@]3(C(=O)O)C[C@H](O)[C@@H](NC(C)=O)[C@H]([C@H](O)[C@@H](CO)O[C@]4(C(=O)O)C[C@H](O)[C@@H](NC(C)=O)[C@H]([C@H](O)[C@H](O)CO)O4)O3)[C@@H](O)[C@H](O[C@H]3[C@H](O)[C@@H](O)C(O)O[C@@H]3CO)O[C@@H]2CO)O[C@H](CO)[C@H](O)[C@@H]1O[C@@H]1O[C@H](CO)[C@H](O)[C@H](O)[C@H]1O (stereo partly drawn) [GD1b, GD1b oligosaccharide, β-D-Gal(1→3)-α-D-GalNAc(1→4)-[α-D-Neu5Ac-(2→8)-α-D-Neu5Ac-(2→3)]-β-D-Gal-(1→4)-D-Glc]
Kd (Sig7-Fc [1]; [9]): 1220 µM
